Here are results for 1 sequence from patent publication US12473332B2, “Modified peptides and associated methods of use” (Advanced Technologies For Novel Therapeutics, LLC, priority 2019, dated 2025).

In one series the target is AKT2 (Homo sapiens, UniProt P31751). The series can be described thus: in vitro kinase assay, selectivity. Set-up: dose or concentration left out as unconfirmed. In kind it is biochemical. On the procedure:
(§1) To test the specificity/selectivity of ZaTa as the inhibitor of AKT1 versus the other major kinases, a series of in vitro kinase assays was performed at IC50 for AKT1 and at ten times higher concentrations. A panel of the following 32 kinases was first tested in vitro using the active form of each kinase and a specific substrate: AKT2, AKT3, PKA, PKCα, PKCγ, PI3Kβ, PI3Kδ, PI3Kγ, SGK, PAK2, PAK3, SAPK2/p38, Abl, CaMKII, CDK1/cyclinB, CDK5/p35, CK1, CK2, CSK, GSK3α, GSK3β, JNK1α1, MAPK1, p70S6K, PDGFRα, PDGFRβ, PDK1, PKG1α, TrkB, JAK2, JAK3, and Syk. […] However, at ten times higher concentration, ZaTa inhibited AKT2 (63%), PI3Kδ (72%), p70S6K (64%), SGK (73%), PAK3 (83%), JAK3 (79%), TrkB (84%), and Abl (42%). To confirm the in vitro inhibitory effect on these kinases in cells, a cell-based assay was used to determine the effect of labeled ZaTa on the phosphorylation levels of well-known intracellular substrates for each kinase (Zipfel, et al. (2004) Curr. Biol. 14:1222-1231; Wang, et al. (2003) Arch. Biochem. Biophys. 410:7-15; King, et al. (1998) Nature 396:180-183; Rangone, et al. (2004)Eur. J. Neurosci. 19:273-279; Middlemas, et al. (1994)J. Biol. Chem. 269:5458-5466; Huang, et al. (1999) J. Biol. Chem. 274:7870-7878). The results of this cell-based kinase assay confirmed that ZaTa could inhibit p70S6K besides AKT. […] Given that most of the above-listed kinases have no known inhibitor, it is contemplated that the ZaTa could be used at micromolar concentrations in in vitro studies to inhibit the activity of the select kinases.

Series [1] deals with Abl (Homo sapiens, UniProt P00519). Kind of series: in vitro kinase assay, selectivity. In kind it is biochemical. Also on record: dose or concentration left out as unconfirmed. As to the method:
as §1

The target of another series is TrkB (Homo sapiens, UniProt Q16620). The series can be described thus: in vitro kinase assay, selectivity. Type of series: biochemical. Set-up: dose or concentration left out as unconfirmed. On the procedure:
as §1

A further series addresses T1, SGK (Homo sapiens, UniProt O00141).
T1 construct: phosphorylation levels of well-known intracellular substrates for each kinase; endogenous in cells
The series can be described thus: in vitro kinase assay, selectivity. In kind it is biochemical. Also on record: dose or concentration left out as unconfirmed. As to the method:
as §1

Series [2] concerns the target T2, p70S6K (Homo sapiens, UniProt P23443).
T2 construct: phosphorylation levels of well-known intracellular substrates for each kinase; endogenous in cells
The series can be described thus: in vitro kinase assay, selectivity. Also on record: dose or concentration left out as unconfirmed. In kind it is biochemical. On the procedure:
as §1

In a further series the target is T3, JAK3 (Homo sapiens, UniProt P52333).
T3 construct: phosphorylation levels of well-known intracellular substrates for each kinase; endogenous in cells
T3 sequence (P52333 whole entry, species assumed): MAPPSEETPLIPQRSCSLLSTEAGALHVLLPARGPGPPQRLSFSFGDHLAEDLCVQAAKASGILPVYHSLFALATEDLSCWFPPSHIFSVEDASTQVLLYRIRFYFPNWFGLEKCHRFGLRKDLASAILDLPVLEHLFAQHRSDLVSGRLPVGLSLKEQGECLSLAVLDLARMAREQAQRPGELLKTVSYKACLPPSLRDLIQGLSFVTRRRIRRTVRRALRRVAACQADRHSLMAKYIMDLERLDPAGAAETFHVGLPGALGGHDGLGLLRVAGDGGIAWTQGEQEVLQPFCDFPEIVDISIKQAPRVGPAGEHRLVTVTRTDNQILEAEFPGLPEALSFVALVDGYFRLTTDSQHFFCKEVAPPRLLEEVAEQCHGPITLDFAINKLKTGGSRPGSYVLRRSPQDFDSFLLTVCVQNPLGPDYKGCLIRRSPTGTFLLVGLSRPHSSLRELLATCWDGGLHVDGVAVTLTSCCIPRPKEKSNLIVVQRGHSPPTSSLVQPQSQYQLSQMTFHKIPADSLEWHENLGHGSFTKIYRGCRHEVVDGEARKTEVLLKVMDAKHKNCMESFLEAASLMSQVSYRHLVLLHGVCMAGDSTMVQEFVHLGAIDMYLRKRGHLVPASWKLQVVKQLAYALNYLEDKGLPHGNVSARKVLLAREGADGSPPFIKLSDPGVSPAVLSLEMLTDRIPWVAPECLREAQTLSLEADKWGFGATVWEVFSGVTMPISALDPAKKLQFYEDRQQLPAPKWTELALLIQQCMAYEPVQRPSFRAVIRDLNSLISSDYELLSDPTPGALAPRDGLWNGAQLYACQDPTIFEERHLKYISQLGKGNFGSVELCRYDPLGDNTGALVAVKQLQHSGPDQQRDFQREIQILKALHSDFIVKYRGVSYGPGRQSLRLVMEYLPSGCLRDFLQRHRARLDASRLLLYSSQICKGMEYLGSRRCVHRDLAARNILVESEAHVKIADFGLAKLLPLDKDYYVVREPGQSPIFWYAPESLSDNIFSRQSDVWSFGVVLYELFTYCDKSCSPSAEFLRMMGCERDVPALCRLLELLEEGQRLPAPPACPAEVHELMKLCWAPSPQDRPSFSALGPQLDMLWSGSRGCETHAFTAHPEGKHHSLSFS
Kind of series: in vitro kinase assay, selectivity. Type of series: biochemical. Set-up: dose or concentration left out as unconfirmed. On the procedure:
as §1

The next series has as its target PAK3 (Homo sapiens, UniProt O75914). The series can be described thus: in vitro kinase assay, selectivity. Type of series: biochemical. Set-up: dose or concentration left out as unconfirmed. On the procedure:
as §1

The test system of another series is primary neurons. Kind of series: TUNEL assay in primary cortical culture. In kind it is cell-based. The conditions noted are these: 1 μM or 5 μM, 72-hour treatment, vs control peptide. On the procedure:
It is now well-established that AKT protects against apoptosis through phosphorylation and inhibition of pro-apoptotic mediators such as BAD, FOXO family members and IKK-β (Datta, et al. (1999) Genes Dev. 13:2905-2927). […] Primary neurons were treated with DMSO, 1 μM or 5 μM of either ZaTa or the control peptide for a duration of 1, 3, 16, 24, 48 or 72 hours. The number of apoptotic cells was counted following the TUNEL assay. […] The increase in the number of apoptotic neurons following treatment with ZaTa was consistent with its potent intra-neuronal inhibition of AKT.

For the next series, the system named is panel of 32 kinases. The series can be described thus: in vitro kinase selectivity panel of 32 kinases. As to conditions: at IC50 for AKT1 (0.1 μM). In kind it is biochemical. On the procedure:
(§2) To test the specificity/selectivity of ZaTa as the inhibitor of AKT1 versus the other major kinases, a series of in vitro kinase assays was performed at IC50 for AKT1 and at ten times higher concentrations. A panel of the following 32 kinases was first tested in vitro using the active form of each kinase and a specific substrate: AKT2, AKT3, PKA, PKCα, PKCγ, PI3Kβ, PI3Kδ, PI3Kγ, SGK, PAK2, PAK3, SAPK2/p38, Abl, CaMKII, CDK1/cyclinB, CDK5/p35, CK1, CK2, CSK, GSK3α, GSK3β, JNK1α1, MAPK1, p70S6K, PDGFRα, PDGFRβ, PDK1, PKG1α, TrkB, JAK2, JAK3, and Syk. […] However, at ten times higher concentration, ZaTa inhibited AKT2 (63%), PI3Kδ (72%), p70S6K (64%), SGK (73%), PAK3 (83%), JAK3 (79%), TrkB (84%), and Abl (42%). To confirm the in vitro inhibitory effect on these kinases in cells, a cell-based assay was used to determine the effect of labeled ZaTa on the phosphorylation levels of well-known intracellular substrates for each kinase (Zipfel, et al. (2004) Curr. Biol. 14:1222-1231; Wang, et al. (2003) Arch. Biochem. Biophys. 410:7-15; King, et al. (1998) Nature 396:180-183; Rangone, et al. (2004)Eur. J. Neurosci. 19:273-279; Middlemas, et al. (1994)J. Biol. Chem. 269:5458-5466; Huang, et al. (1999) J. Biol. Chem. 274:7870-7878). The results of this cell-based kinase assay confirmed that ZaTa could inhibit p70S6K besides AKT. […]

Series [3] addresses T2, p70S6K. The series can be described thus: cell-based kinase assay, phosphorylation of intracellular substrates. As to the method: as §2
For series [4], the target named is T4, Abl (Mus musculus, UniProt P00520).
T4 construct: from tissue; host or cells: brain hemisphere, in vivo
T4 sequence (P00520 whole entry): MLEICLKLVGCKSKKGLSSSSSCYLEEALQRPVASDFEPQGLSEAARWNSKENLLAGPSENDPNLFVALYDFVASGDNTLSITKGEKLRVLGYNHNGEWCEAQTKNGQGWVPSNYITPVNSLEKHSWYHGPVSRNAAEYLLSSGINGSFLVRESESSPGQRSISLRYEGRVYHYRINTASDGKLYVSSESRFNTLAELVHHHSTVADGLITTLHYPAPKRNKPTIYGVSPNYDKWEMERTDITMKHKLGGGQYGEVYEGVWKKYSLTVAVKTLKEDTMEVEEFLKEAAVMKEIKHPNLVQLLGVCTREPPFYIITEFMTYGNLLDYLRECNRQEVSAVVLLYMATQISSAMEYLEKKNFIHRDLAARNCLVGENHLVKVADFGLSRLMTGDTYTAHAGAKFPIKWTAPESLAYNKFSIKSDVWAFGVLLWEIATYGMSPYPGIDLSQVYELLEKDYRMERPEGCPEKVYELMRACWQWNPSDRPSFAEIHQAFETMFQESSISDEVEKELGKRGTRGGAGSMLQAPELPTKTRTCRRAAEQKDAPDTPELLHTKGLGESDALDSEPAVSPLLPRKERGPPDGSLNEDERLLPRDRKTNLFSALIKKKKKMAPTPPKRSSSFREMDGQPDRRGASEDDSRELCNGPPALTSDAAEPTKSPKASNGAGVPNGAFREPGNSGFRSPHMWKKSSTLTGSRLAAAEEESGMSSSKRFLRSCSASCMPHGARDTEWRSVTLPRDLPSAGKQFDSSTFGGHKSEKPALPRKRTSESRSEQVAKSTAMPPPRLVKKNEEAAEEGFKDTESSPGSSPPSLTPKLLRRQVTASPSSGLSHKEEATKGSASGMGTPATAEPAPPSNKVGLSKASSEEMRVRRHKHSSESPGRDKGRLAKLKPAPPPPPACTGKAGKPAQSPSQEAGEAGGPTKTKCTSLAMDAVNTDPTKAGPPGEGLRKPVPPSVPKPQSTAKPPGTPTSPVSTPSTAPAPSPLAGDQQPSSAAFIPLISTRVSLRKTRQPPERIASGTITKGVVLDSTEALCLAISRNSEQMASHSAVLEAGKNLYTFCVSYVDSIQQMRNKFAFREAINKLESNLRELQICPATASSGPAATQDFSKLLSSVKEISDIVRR
The series can be described thus: stereotactic injection into brain, western blot with phospho-specific antibodies. In kind it is in vivo. As to conditions: vs DMSO hemisphere. On the procedure:
(§3) To analyze in vivo selectivity, ZaTa was injected into one hemisphere and DMSO in the other hemisphere, as above, and a series of western blot analyses was performed with phospho-specific antibodies which recognize a phosphorylated substrate or each one of the kinases that ZaTa inhibited at higher concentrations in vitro. […] Given the high functional and structural homology between p70S6K and AKT, the in vivo inhibitory effect of ZaTa on p70S6K was contemplated. Furthermore, the in vivo effect of ZaTa on the phosphorylation levels of substrates for PKA, PKC, CDKs using phospho-specific antibodies recognizing the phosphorylated consensus sites of these kinases was analyzed.

In a further series the target is AKT (Homo sapiens, UniProt P31749). The series can be described thus: in vitro AKT kinase assay with Ser-9 GSK-3 GST fusion protein substrate; PKAc peptide library screen. In kind it is biochemical. The conditions noted are these: Ser-9 GSK-3 GST substrate.
Chain of AKT (P31749 whole entry, the tested form may be a part): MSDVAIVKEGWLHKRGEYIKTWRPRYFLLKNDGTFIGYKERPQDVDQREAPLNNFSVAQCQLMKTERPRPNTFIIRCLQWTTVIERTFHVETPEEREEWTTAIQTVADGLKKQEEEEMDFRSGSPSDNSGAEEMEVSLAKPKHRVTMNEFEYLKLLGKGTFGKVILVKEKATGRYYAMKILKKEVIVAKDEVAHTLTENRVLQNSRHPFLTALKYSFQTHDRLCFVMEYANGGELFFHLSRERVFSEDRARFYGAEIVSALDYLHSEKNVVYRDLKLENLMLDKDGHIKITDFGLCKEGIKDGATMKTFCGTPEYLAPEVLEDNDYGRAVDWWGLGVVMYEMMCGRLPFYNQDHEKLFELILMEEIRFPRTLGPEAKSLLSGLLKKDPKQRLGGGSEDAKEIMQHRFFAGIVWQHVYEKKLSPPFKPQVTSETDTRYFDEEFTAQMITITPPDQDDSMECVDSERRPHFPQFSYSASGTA
Series [5] is described as follows: trypan blue staining, live and dead cell count. Type of series: cell-based. As to conditions: 12 to 72 hours. An excerpt: Therefore, in addition to capturing live images, cells were stained with trypan blue at different time intervals following treatment with ZaTa and counted by a light microscope using a hemocytometer.
Another series relates to N2a cells. The series can be described thus: AKT-PKAc complex and neurite count in cultured N2a neurons. In kind it is cell-based. The conditions noted are these: 24 hours treatment. On the procedure: Accordingly, the stability and phenotypic consequences of the AKT-PKAc complex was also analyzed in cultured neurons. N2a cells were treated with vehicle, ZaTa or control peptide for 24 hours. Media was removed after the 24-hour treatment and an equal number of cells from each treatment group was either cultured for another 24 hours without treatment, or lysed and subjected to immunoprecipitation with an antibody against AKT. Those cells cultured for another 24 hours were also harvested and subjected to immunoprecipitation. In parallel, the number of individual neurons with neurites was counted. […] Live images of N2a neurons were captured following treatment with vehicle or ZaTa (2 or 5 μM). […] ZaTa-mediated changes included a progressive loss of neurites, inhibition of new neurite formation, loss of cell motility, as well as formation of large cell colonies.

The next series concerns PKA, PKC, CDKs. The series can be described thus: stereotactic injection into brain, phosphorylation of PKA, PKC and CDKs substrates. Also on record: species or system mouse. As to the method: as §3
As a striatal specific substrate for PKA and CDK5, the phosphorylation level of DARPP-32 was determined at Thr-34 (the PKA site) or at Thr-75 (the CDK5 site) (Huang, et al. (1999) supra).

Where no end group is shown, it is not given here.

T2 sequence (P23443 whole entry): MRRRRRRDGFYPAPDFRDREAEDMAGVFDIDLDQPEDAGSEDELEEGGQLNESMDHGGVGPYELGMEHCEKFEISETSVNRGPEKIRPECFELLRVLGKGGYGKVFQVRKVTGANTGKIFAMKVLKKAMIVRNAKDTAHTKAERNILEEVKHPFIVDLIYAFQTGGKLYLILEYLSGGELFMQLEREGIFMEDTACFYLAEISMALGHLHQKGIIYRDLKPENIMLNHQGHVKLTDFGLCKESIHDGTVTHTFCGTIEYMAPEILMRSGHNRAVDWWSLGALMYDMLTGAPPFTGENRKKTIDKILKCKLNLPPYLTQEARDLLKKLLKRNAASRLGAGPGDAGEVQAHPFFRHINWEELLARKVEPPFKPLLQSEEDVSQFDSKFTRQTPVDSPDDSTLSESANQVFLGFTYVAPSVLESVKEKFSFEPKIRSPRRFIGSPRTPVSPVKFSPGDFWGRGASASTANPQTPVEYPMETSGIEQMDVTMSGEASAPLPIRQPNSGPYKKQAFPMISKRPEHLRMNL
T1 sequence (O00141 whole entry, species assumed): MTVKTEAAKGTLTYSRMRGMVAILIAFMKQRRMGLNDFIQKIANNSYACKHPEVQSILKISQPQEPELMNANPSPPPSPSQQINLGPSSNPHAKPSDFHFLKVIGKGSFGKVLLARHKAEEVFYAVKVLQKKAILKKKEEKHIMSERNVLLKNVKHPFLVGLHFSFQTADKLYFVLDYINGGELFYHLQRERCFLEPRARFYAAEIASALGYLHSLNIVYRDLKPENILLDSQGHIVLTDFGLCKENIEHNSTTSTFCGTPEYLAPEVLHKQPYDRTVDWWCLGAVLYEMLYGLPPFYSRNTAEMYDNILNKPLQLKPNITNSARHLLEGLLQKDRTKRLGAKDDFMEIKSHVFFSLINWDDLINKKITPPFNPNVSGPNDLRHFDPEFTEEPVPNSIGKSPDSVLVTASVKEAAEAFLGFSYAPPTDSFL
Chain of PAK3 (O75914 whole entry, species assumed): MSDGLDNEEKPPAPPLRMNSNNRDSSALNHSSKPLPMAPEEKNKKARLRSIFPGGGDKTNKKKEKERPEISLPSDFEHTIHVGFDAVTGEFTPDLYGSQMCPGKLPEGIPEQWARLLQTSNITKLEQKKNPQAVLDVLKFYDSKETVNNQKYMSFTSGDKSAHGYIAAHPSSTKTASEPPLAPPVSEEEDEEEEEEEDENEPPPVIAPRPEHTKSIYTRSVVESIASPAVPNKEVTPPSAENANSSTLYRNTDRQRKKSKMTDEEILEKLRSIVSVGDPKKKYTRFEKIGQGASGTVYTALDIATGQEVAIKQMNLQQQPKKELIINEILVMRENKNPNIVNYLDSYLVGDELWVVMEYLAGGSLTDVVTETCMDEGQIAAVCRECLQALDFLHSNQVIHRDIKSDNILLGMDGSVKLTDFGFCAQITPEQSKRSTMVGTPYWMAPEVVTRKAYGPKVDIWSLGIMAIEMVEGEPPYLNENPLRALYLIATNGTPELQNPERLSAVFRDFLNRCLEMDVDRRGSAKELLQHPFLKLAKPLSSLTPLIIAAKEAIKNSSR
Chain of AKT2 (P31751 whole entry, species assumed): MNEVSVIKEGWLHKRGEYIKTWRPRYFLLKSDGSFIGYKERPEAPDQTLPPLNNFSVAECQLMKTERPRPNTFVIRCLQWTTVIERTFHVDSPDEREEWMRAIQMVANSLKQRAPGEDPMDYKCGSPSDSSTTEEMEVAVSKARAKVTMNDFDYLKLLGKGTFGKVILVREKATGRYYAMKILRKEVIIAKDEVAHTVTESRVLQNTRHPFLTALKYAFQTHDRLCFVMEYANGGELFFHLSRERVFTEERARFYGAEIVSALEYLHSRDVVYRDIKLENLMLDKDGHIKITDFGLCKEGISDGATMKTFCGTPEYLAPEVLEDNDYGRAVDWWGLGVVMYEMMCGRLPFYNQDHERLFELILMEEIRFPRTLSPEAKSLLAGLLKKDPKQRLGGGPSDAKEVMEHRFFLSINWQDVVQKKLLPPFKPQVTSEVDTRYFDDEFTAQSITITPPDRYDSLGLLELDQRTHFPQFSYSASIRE

In the case of “AKRVKGRTWTLCGTPEY [Peptide 53, A-K-R-V-K-G-R-T-W-T-L-C-G-T-P-E-Y]”, the inhibition against AKT2 stood at 63%; against Abl [1], 42%; at TrkB it was 84%; at SGK, 73%; at p70S6K [2] it was 64%; at JAK3 it was 79%. Further, the inhibition against PAK3 turned out to be 83%. Also, the “number of TUNEL-positive cells” value with primary neurons is on record as “marked dose-dependent increase in the number of TUNEL-positive cells”. For the same sequence, the “inhibition of panel kinases” value with panel of 32 kinases is given as “no significant inhibition”. Further, at p70S6K [3], the “inhibition of p70S6K in cells” value is given as “could inhibit”. For the same sequence, on Abl [4], the “in vivo inhibition of Abl” value is “weaker in vivo inhibition”. Moreover, the “inhibitory effect on catalytic activity of AKT” value is “significant inhibitory effects” against AKT and “significantly reduced” against AKT (listed as ZaTa). Besides, the “number of dead cells” value in [5] is reported as “a significant increase in the number of dead cells was not seen”. Further, in the series with N2a cells, the “amount of PKAc in physical contact with AKT” value is given as “reduced the amount of PKAc in physical contact with AKT”. Besides, in the series on N2a cells, the “number of neurons with neurites” value was “significant reduction in the number of neurons with neurites”. Further, in the series on PKA, PKC, CDKs, the “phosphorylation level of PKA, PKC and CDKs substrates in vivo” value was “significant changes in the phosphorylation level of PKA, PKC and CDKs substrates was not observed”.

In general, inhibition refers to how much of the control response was suppressed.
